According to patent publication US9206188B2, “Substituted pyrrolo[2,3-b]pyridines as ITK and JAK inhibitors” (Arrien Pharmaceuticals LLC, priority 2013, dated 2015):

Assays:
JAK3 = JAK3 (Homo sapiens (Human), UniProt P52333); assay: JAK3 kinase assay (radiometric filter binding, 10 μM ATP); type: biochemical; details: 10-dose IC50 mode, 10 μM ATP; read-out: JAK3 kinase inhibition
Description: (§1) All additions were done on ice, followed by the addition of ATP mix. Wells were uniformly mixed using an Eppendorff plate shaker and incubated at 30° C. for 20 min, and stopped by the addition of 5 μL of 3% phosphoric acid. Volume was increased to 100 μL by adding 0.8% phosphoric acid which was then transferred to PC filter mats (Millipore), pre-equilibrated with 70% ethanol and water. Plates were washed thrice with 100 μL 0.8% phosphoric acid and dried for an hour at 60° C. 100 μL scintillation fluid was added into each well and reading taken in Perkin Elmer TOPCOUNT beta counter.
(§2) The reactions were carried out at 10 μM ATP for ITK, JAK3 and other TEC and Janus family of kinase.

ITK = ITK (Homo sapiens (Human), UniProt Q08881); assay: ITK kinase assay (radiometric filter binding, 10 μM ATP); type: biochemical; details: 10-dose IC50 mode, 10 μM ATP; read-out: ITK kinase inhibition
Description: as §1, §2

Chain of JAK3 (P52333 whole entry): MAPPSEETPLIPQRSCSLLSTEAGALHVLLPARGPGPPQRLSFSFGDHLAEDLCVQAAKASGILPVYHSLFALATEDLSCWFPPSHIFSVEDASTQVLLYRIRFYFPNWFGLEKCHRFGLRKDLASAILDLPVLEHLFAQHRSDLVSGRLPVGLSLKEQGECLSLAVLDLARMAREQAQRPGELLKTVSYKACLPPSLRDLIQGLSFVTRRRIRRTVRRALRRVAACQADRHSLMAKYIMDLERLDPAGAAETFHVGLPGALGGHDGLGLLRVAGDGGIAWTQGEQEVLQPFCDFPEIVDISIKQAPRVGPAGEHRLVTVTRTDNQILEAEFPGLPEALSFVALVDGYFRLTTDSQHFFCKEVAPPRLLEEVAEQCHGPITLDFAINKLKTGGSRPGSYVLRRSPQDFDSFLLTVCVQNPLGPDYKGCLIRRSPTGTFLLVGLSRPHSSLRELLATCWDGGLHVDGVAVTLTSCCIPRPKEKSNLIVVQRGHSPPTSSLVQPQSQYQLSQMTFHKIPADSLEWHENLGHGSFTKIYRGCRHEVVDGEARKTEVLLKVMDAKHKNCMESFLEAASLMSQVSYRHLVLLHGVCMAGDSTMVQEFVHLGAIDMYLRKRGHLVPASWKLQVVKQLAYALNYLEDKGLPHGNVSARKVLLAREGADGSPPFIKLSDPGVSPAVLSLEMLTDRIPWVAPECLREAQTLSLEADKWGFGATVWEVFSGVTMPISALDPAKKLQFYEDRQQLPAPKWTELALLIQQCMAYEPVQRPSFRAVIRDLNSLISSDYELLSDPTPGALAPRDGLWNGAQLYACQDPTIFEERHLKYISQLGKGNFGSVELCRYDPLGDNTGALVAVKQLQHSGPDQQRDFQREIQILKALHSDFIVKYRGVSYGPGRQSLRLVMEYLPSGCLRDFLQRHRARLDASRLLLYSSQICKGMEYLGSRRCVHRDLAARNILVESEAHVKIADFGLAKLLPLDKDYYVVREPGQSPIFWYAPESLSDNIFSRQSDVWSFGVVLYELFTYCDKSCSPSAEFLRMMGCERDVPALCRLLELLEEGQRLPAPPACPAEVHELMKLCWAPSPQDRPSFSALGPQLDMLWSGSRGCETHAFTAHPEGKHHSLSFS
Chain of ITK (Q08881 whole entry): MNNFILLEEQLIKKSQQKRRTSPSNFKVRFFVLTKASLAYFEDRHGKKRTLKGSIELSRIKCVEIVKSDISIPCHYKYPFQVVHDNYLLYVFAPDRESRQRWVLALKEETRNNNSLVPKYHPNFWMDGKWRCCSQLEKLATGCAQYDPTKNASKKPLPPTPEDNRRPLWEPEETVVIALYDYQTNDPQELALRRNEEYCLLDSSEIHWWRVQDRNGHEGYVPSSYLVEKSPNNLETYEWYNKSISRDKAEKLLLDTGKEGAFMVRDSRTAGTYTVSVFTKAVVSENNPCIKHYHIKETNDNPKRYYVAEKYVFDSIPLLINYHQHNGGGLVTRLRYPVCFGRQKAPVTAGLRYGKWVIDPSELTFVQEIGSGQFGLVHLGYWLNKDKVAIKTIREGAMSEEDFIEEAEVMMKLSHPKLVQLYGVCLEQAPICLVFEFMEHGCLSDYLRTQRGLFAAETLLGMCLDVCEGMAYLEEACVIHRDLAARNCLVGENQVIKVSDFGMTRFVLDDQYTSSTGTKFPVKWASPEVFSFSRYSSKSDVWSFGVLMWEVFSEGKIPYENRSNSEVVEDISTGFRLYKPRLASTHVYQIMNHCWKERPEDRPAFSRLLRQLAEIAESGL

Row | Compound | IC50 (JAK3) [µM] | IC50 (ITK) [µM]
1 | Cc1c[nH]c2ncc(-c3cccc(NC(=O)C4CCCN4)c3)cc12 (centres unmarked) [Example 71, N-(3-(3-methyl-1H-pyrrolo[2,3-b]pyridin-5-yl)phenyl)pyrrolidine-2-carboxamide] | > 0.1 | > 0.1
2 | C#CC(=O)Nc1cccc(-c2cnc3[nH]ccc3c2)n1 [Example 77, N-(6-(1H-pyrrolo[2,3-b]pyridin-5-yl)pyridin-2-yl)propiolamide] | < 0.1 | < 0.1
3 | C=CC(=O)Nc1cccc(-c2cnc3[nH]ccc3c2)n1 [Example 57, N-(6-(1H-pyrrolo[2,3-b]pyridin-5-yl)pyridin-2-yl)acrylamide] | < 0.1 | > 0.1
4 | CC#CC(=O)Nc1cccc(-c2cnc3[nH]cc(Cl)c3c2)c1 [Example 19, N-(3-(3-chloro-1H-pyrrolo[2,3-b]pyridin-5-yl)phenyl)but-2-ynamide] | < 0.1 | < 0.1
5 | C=CC(=O)Nc1cccc(-c2cnc3[nH]cc(-c4cc5ccc(C)cc5[nH]4)c3n2)c1 [Example 2, N-(3-(7-(6-methyl-1H-indol-2-yl)-5H-pyrrolo[2,3-b]pyrazin-2-yl)phenyl)acrylamide] | > 0.1 | > 0.1
6 | C#CC(=O)Nc1cccc(-c2cnc3[nH]cc(Cl)c3c2)n1 [Example 79, N-(6-(3-chloro-1H-pyrrolo[2,3-b]pyridin-5-yl)pyridin-2-yl)propiolamide] | < 0.1 | < 0.1
7 | CCC#CC(=O)Nc1cccc(-c2cnc3[nH]cc(-c4cccc(S(=O)(=O)N(C)C(C)(C)C)c4)c3c2)c1 [Example 32, N-(3-(3-(3-(N-(tert-butyl)-N-methylsulfamoyl)phenyl)-1H-pyrrolo[2,3-b]pyridin-5-yl)phenyl)pent-2-ynamide] | < 0.1 | > 0.1
8 | CC#CC(=O)Nc1cc(-c2cnc3[nH]ccc3c2)ccc1F [Example 87, N-(2-fluoro-5-(1H-pyrrolo[2,3-b]pyridin-5-yl)phenyl)but-2-ynamide] | < 0.1 | > 0.1
9 | CCC#CC(=O)Nc1cccc(-c2cnc3[nH]cc(Cl)c3c2)c1 [Example 21, N-(3-(3-chloro-1H-pyrrolo[2,3-b]pyridin-5-yl)phenyl)pent-2-ynamide] | < 0.1 | < 0.1
10 | CCC#CC(=O)Nc1cccc(-c2cnc3[nH]cc(C)c3c2)n1 [Example 90, N-(6-(3-methyl-1H-pyrrolo[2,3-b]pyridin-5-yl)pyridin-2-yl)pent-2-ynamide] | < 0.1 | < 0.1
11 | Cc1n[nH]c2ncc(-c3cccc(NC(=O)/C=C/N(C)C)c3)cc12 [Example 48, (E)-3-(dimethylamino)-N-(3-(3-methyl-1H-pyrazolo[3,4-b]pyridin-5-yl)phenyl)acrylamide] | > 0.1 | > 0.1
12 | N#CCc1cccc(Nc2cnc3[nH]cc(Cl)c3c2)c1 [Example 53, 2-(3-((3-chloro-1H-pyrrolo[2,3-b]pyridin-5-yl)amino)phenyl)acetonitrile] | > 1 | > 1
13 | C=CC(=O)N1CCCC1C(=O)Nc1cccc(-c2cnc3[nH]cc(C)c3c2)c1 (centres unmarked) [Example 72, 1-acryloyl-N-(3-(3-methyl-1H-pyrrolo[2,3-b]pyridin-5-yl)phenyl)pyrrolidine-2-carboxamide] | > 0.1 | > 0.1
14 | C=CC(=O)N1CCCC1C(=O)Nc1cccc(-c2cnc3[nH]cc(Cl)c3c2)c1 (centres unmarked) [Example 68, 1-acryloyl-N-(3-(3-chloro-1H-pyrrolo[2,3-b]pyridin-5-yl)phenyl)pyrrolidine-2-carboxamide] | > 0.1 | > 0.1

The next lines start with the values.

Row | IC50 (JAK3) [µM] | IC50 (ITK) [µM] | Compound
15 | < 0.1 | < 0.1 | C=CC(=O)Nc1cc(-c2cnc3[nH]ccc3c2)ccc1F [Example 59, N-(2-fluoro-5-(1H-pyrrolo[2,3-b]pyridin-5-yl)phenyl)acrylamide]
16 | > 0.1 | > 0.1 | C=CC(=O)Nc1cc(-c2cnc3[nH]nc(C)c3c2)ccc1Cl [Example 50, N-(2-chloro-5-(3-methyl-1H-pyrazolo[3,4-b]pyridin-5-yl)phenyl)acrylamide]
17 | < 0.1 | < 0.1 | C=CC(=O)Nc1cccc(-c2cnc3[nH]cc(-c4cccc(S(=O)(=O)N(C)C(C)(C)C)c4)c3c2)c1 [Example 27, N-(3-(3-(3-(N-(tert-butyl)-N-methylsulfamoyl)phenyl)-1H-pyrrolo[2,3-b]pyridin-5-yl)phenyl)acrylamide]
18 | > 0.1 | > 0.1 | COc1c(F)cc(F)cc1-c1c[nH]c2ncc(-c3cc(NC(=O)/C=C/CN(C)C)ccc3F)cc12 [Example 133, (E)-N-(3-(3-(3,5-difluoro-2-methoxyphenyl)-1H-pyrrolo[2,3-b]pyridin-5-yl)-4-fluorophenyl)-4-(dimethylamino)but-2-enamide]
19 | > 1 | > 1 | C=CC(=O)Nc1ccccc1-c1cnc2[nH]cc(Cl)c2c1 [Example 18, N-(2-(3-chloro-1H-pyrrolo[2,3-b]pyridin-5-yl)phenyl)acrylamide]
20 | < 0.1 | < 0.1 | C=CC(=O)Nc1cccc(-c2cnc3[nH]cc(-c4cccc(F)c4OC)c3c2)c1 [Example 26, N-(3-(3-(3-fluoro-2-methoxyphenyl)-1H-pyrrolo[2,3-b]pyridin-5-yl)phenyl)acrylamide]
21 | > 0.1 | > 0.1 | C=CC(=O)Nc1cc(-c2cnc3[nH]cc(-c4cc(F)cc(F)c4OC)c3c2)ccc1Cl [Example 41, N-(2-chloro-5-(3-(3,5-difluoro-2-methoxyphenyl)-1H-pyrrolo[2,3-b]pyridin-5-yl)phenyl)acrylamide]
22 | > 0.1 | > 0.1 | C=CC(=O)Nc1cccc(-c2cnc3[nH]cc(-c4cccc(S(=O)(=O)CC)c4)c3c2)c1 [Example 36, N-(3-(3-(3-(ethylsulfonyl)phenyl)-1H-pyrrolo[2,3-b]pyridin-5-yl)phenyl)acrylamide]
23 | < 0.1 | > 0.1 | CCC#CC(=O)Nc1cc(-c2cnc3[nH]cc(Cl)c3c2)ccc1F [Example 86, N-(5-(3-chloro-1H-pyrrolo[2,3-b]pyridin-5-yl)-2-fluorophenyl)pent-2-ynamide]
24 | > 1 | > 1 | C=CC(=O)Nc1cc(-c2cnc3[nH]cc(Cl)c3c2)ccc1Cl [Example 46, N-(2-chloro-5-(3-chloro-1H-pyrrolo[2,3-b]pyridin-5-yl)phenyl)acrylamide]
25 | < 0.1 | < 0.1 | C=CC(=O)Nc1cccc(-c2cnc3[nH]cc(-c4cccc(C(=O)OCC)c4)c3c2)c1 [Example 29, ethyl 3-(5-(3-acrylamidophenyl)-1H-pyrrolo[2,3-b]pyridin-3-yl)benzoate]
26 | < 0.1 | > 0.1 | C=CC(=O)Nc1cccc(-c2cnc3[nH]cc(Cl)c3c2)n1 [Example 58, N-(6-(3-chloro-1H-pyrrolo[2,3-b]pyridin-5-yl)pyridin-2-yl)acrylamide]
27 | > 0.1 | > 1 | C=CC(=O)Nc1cc(-c2cnc3[nH]ccc3c2)cc(F)c1F [Example 63, N-(2,3-difluoro-5-(1H-pyrrolo[2,3-b]pyridin-5-yl)phenyl)acrylamide]
28 | > 0.1 | > 0.1 | C=CC(=O)Nc1cc(-c2cnc3[nH]cc(-c4cc(F)cc(F)c4OC)c3c2)c(F)cc1F [Example 39, N-(5-(3-(3,5-difluoro-2-methoxyphenyl)-1H-pyrrolo[2,3-b]pyridin-5-yl)-2,4-difluorophenyl)acrylamide]
